Data: PMC9737137, “The Mitochondrial Protein MitoNEET as a Probe for the Allostery of Glutamate Dehydrogenase” (Molecules, 2022)
Values belong to the compound of their own block, whether it stands above or below them.

Columns and labels:
[1] = molecular target: T1, glutamate dehydrogenase (GDH) (Bos taurus, UniProt P00366); test: GDH kinetics, NAD(P)H formation at […] nm; percent activation with NADP; format: biochemical
T1 construct: gene GLUD1

[2] = molecular target: T1, glutamate dehydrogenase (GDH); test: GDH kinetics, NAD(P)H formation at […] nm; fraction of activity with NAD added first; format: biochemical
[3] = molecular target: T1, glutamate dehydrogenase (GDH); test: GDH kinetics, NAD(P)H formation at […] nm; fraction of activity (Figure 1C); format: biochemical
[4] = molecular target: T1, glutamate dehydrogenase (GDH); test: GDH kinetics, NAD(P)H formation at […] nm; percent activation (Figure 4B); format: biochemical
[5] = molecular target: T1, glutamate dehydrogenase (GDH); test: GDH kinetics, NAD(P)H formation at […] nm; fraction of activity; format: biochemical
mitoNEET = molecular target: T2, mitoNEET (Homo sapiens, UniProt Q9NZ45); test: radioligand competition assay (SPA nickel beads); format: binding
T2 construct: gene CISD1
T2 sequence (Q9NZ45 2-108): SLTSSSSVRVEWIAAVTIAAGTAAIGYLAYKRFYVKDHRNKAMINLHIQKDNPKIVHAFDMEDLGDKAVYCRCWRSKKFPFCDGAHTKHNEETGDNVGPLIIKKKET

T1 sequence (P00366 58-558, one chain of several): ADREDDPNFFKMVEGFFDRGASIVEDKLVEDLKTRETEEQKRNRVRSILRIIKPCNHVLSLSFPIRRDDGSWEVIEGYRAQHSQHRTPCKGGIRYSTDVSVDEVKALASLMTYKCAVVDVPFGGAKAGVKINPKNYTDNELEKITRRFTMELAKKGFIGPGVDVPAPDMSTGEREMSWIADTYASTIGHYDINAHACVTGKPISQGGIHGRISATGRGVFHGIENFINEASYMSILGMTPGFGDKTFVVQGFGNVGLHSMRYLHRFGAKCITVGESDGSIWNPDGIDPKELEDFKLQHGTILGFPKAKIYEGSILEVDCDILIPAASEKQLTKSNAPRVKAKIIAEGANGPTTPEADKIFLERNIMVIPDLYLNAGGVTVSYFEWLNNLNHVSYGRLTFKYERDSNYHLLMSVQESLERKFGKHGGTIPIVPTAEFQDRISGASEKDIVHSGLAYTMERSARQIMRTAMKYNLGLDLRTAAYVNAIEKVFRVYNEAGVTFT

% activation [1]: 67 % activation
SMILES: Nc1ncnc2c1ncn2[C@@H]1O[C@H](COP(=O)(O)OP(=O)(O)O)[C@@H](O)[C@H]1O [ADP]

SMILES: O=C(O[C@@H]1Cc2c(O)cc(O)cc2O[C@@H]1c1cc(O)c(O)c(O)c1)c1cc(O)c(O)c(O)c1 [EGCG]
GDH kinetics, NAD(P)H formation at 340 nm; fraction of activity with NAD added f [2]: 0.35 ± 0.02 fraction of activity

SMILES: Nc1nc2c(ncn2[C@@H]2O[C@H](COP(=O)(O)OP(=O)(O)OP(=O)(O)O)[C@@H](O)[C@H]2O)c(=O)[nH]1 [GTP]
GDH kinetics, NAD(P)H formation at 340 nm; fraction of activity (Figure 1C) [3]: under only one assay condition the rescue of GDH activity from GTP inhibition by mitoNEET could be observed

SMILES: CC(C)C[C@H](N)C(=O)O [leucine]
GDH kinetics, NAD(P)H formation at 340 nm; percent activation (Figure 4B) [4]: addition of mitoNEET after the addition of leucine gave no impact in percent activation over the addition of leucine alone

GDH kinetics, NAD(P)H formation at 340 nm; fraction of activity [5]: 0.44 ± 0.04 fraction of activity | IC50 (mitoNEET): 0.304 µM
SMILES: CCCCCCCCCCCCCCCC(=O)SCCNC(=O)CCNC(=O)[C@H](O)C(C)(C)COP(=O)(O)OP(=O)(O)OC[C@H]1O[C@@H](n2cnc3c(N)ncnc32)[C@H](O)[C@@H]1OP(=O)(O)O [palmitoyl-CoA]
